Reference: patent US11739098B2 (BRISTOL-MYERS SQUIBB COMPANY, priority 2017, dated 2023)

Experiments:
Type in all cases: cell-based
human TLR8 = target: T1, human TLR8 (Homo sapiens, UniProt Q9NR97); test: TLR8 inhibition reporter assay (HEK-Blue cells, SEAP reporter, R848 stimulation); conditions: HEK-Blue cells overexpressing human TLR8, SEAP reporter, R848 15.9 μM
T1 construct: host or cells: HEK-Blue cells (HEK293-derived reporter line)
T1 sequence (Q9NR97 27-1041): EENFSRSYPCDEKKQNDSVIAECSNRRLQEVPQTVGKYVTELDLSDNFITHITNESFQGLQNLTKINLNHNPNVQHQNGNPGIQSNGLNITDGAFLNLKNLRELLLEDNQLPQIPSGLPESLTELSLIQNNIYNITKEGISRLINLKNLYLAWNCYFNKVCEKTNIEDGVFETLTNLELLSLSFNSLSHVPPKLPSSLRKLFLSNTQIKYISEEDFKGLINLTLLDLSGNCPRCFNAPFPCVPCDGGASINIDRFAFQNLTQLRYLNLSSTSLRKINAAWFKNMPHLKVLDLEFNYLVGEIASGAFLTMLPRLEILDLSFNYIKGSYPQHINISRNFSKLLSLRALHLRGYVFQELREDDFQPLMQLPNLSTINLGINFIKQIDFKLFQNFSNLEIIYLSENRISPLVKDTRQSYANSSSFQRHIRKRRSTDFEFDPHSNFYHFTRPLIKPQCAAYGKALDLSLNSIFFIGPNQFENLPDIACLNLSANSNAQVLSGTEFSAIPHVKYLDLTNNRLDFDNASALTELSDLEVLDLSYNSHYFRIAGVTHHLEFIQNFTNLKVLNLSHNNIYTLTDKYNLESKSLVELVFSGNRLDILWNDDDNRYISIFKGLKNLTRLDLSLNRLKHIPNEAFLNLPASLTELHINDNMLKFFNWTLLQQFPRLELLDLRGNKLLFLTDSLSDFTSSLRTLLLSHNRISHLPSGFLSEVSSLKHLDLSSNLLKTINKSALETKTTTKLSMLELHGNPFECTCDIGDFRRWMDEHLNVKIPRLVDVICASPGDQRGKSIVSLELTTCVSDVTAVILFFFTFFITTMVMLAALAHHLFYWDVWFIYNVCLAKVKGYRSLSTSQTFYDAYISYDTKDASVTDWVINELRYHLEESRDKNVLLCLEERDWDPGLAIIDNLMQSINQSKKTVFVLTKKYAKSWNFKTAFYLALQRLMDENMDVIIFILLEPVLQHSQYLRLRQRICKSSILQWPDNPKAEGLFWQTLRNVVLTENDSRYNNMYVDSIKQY
Method in brief: (§1)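 Read-out is SEAP activity in HEK-Blue detection medium after 22 h at 37 °C, converted to percent inhibition against agonist-plus-DMSO and reference-inhibitor controls. Cells saw compound (0.05 nM–50 μM, 30 min, room temperature) before gardiquimod 7.5 μM, R848 15.9 μM or ODN2006 5 nM for TLR7, TLR8 and TLR9, respectively.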

human TLR9 = target: T2, human TLR9 (Homo sapiens, UniProt Q9NR96); test: TLR9 inhibition reporter assay (HEK-Blue cells, SEAP reporter, ODN2006 stimulation); conditions: HEK-Blue cells overexpressing human TLR9, SEAP reporter, ODN2006 5 nM
T2 construct: host or cells: HEK-Blue cells (HEK293-derived reporter line)
T2 sequence (Q9NR96 26-1032): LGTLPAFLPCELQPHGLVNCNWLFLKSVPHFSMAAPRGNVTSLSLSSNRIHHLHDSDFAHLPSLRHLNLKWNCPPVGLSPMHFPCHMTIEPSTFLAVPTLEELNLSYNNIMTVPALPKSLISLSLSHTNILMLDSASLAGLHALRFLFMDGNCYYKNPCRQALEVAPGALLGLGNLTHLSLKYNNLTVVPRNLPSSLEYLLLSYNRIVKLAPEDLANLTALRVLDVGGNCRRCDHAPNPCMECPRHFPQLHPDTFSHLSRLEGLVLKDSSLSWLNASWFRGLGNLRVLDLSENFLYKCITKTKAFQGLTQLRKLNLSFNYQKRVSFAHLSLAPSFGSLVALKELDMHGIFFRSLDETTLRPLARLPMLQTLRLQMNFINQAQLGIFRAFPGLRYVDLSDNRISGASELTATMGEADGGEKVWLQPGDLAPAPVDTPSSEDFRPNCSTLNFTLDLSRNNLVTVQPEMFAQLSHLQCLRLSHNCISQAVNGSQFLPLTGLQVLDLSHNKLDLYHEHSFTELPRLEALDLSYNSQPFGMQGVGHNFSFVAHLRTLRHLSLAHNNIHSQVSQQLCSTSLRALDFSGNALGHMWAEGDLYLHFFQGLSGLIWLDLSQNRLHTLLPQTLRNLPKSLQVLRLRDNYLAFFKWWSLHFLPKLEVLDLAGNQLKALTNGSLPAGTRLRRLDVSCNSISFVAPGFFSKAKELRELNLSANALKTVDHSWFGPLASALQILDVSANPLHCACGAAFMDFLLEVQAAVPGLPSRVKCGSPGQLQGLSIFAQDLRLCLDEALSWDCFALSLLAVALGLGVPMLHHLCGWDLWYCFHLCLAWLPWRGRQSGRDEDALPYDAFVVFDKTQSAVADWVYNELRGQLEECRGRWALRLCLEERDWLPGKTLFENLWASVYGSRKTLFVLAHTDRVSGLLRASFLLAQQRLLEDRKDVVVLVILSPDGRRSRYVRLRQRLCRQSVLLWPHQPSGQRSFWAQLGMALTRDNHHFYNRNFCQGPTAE
Method in brief: as §1

human TLR7 = target: T3, human TLR7 (Homo sapiens, UniProt Q9NYK1); test: TLR7 inhibition reporter assay (HEK-Blue cells, SEAP reporter, gardiquimod stimulation); conditions: HEK-Blue cells overexpressing human TLR7, SEAP reporter, gardiquimod 7.5 μM
T3 construct: host or cells: HEK-Blue cells (HEK293-derived reporter line)
T3 sequence (Q9NYK1 27-1049): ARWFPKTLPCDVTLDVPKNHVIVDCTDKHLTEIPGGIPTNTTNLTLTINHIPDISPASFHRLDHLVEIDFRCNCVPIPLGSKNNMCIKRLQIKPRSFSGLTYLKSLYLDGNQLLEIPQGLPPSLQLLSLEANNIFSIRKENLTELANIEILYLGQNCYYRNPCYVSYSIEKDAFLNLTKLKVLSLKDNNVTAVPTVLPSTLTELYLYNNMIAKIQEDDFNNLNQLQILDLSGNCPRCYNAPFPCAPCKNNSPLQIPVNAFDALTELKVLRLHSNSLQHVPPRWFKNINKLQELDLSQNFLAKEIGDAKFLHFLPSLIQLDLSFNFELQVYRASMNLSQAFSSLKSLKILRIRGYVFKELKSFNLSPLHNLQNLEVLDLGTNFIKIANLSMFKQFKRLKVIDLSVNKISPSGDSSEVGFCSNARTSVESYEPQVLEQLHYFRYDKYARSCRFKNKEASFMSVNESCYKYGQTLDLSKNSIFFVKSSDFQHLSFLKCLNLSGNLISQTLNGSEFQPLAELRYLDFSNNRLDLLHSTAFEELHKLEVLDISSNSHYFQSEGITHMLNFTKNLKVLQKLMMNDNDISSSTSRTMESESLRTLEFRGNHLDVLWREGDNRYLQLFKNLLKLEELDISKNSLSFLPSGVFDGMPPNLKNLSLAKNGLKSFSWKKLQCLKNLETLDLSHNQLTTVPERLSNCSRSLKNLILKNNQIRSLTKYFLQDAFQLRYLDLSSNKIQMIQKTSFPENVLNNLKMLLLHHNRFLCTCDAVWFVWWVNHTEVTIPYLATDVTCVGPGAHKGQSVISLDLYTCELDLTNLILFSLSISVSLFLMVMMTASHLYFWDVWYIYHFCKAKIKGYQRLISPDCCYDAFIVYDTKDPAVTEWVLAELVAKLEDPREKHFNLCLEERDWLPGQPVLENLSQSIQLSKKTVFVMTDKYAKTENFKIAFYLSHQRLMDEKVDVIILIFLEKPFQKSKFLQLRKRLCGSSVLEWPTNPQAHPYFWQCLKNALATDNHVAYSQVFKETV
Method in brief: as §1

Compound | IC50 (human TLR8) | IC50 (human TLR9) | IC50 (human TLR7)
Cc1nn2ccc(-c3[nH]c4ccc(C5CCNCC5)cc4c3C(C)C)nc2c1F [Example 150, 3-fluoro-5-(3-isopropyl-5-(piperidin-4-yl)-1H-indol-2-yl)-2-methylpyrazolo[1,5-a]pyrimidine] | 1000 to 50000 nM | 1000 to 50000 nM | 1000 to 50000 nM
COc1cc(-c2[nH]c3ccc(C4CCN(CC(=O)N(C)C)CC4)cc3c2C(C)C)cn2ccnc12 [Example 433, 2-(4-(3-isopropyl-2-(8-methoxyimidazo[1,2-a]pyridin-6-yl)-1H-indol-5-yl)piperidin-1-yl)-N,N-dimethylacetamide] | < 100 nM | 100 to 1000 nM | < 100 nM
CNCCN1CCC(c2ccc3[nH]c(-c4ccc5nccnc5c4)c(C)c3c2)CC1 [Example 658] | 1000 to 50000 nM | 100 to 1000 nM | 1000 to 50000 nM
COc1cc2[nH]c(-c3ccnc4[nH]ncc34)c(C(C)C)c2cc1C1CCNCC1 [Example 255, 4-(3-isopropyl-6-methoxy-5-(piperidin-4-yl)-1H-indol-2-yl)-1H-pyrazolo[3,4-b]pyridine] | 100 to 1000 nM | 1000 to 50000 nM | < 100 nM
Cc1cc2cc(-c3[nH]c4ccc(C5CCNCC5)cc4c3C(C)C)cc(CC(C)C)n2n1 [Example 144, 7-isobutyl-5-(3-isopropyl-5-(piperidin-4-yl)-1H-indol-2-yl)-2-methylpyrazolo[1,5-a]pyridine] | > 3130 nM | 1000 to 50000 nM | > 3130 nM
Cc1nc2ccc(-c3[nH]c4ccc(C5CCNCC5)cc4c3C(C)C)cc2o1 [Example 6, 6-(3-isopropyl-5-(piperidin-4-yl)-1H-indol-2-yl)-2-methylbenzo[d]oxazole] | 100 to 1000 nM | 1000 to 50000 nM | < 100 nM
Cc1nc2cc(-c3[nH]c4ccc(C5CCN(C(=O)C[C@H](C)O)CC5)cc4c3C(C)C)ccn2n1 [Example 602, (S)-3-hydroxy-1-(4-(3-isopropyl-2-(2-methyl-[1,2,4]triazolo[1,5-a]pyridin-7-yl)-1H-indol-5-yl)piperidin-1-yl)butan-1-one] | > 3130 nM | > 50000 nM | < 100 nM
Cc1cc(-c2[nH]c3ccc(C4CCN(C(=O)CN(C)C)CC4)cc3c2C(C)C)c2ccccc2n1 [Example 533, 2-(dimethylamino)-1-(4-(3-isopropyl-2-(2-methylquinolin-4-yl)-1H-indol-5-yl)piperidin-1-yl)ethan-1-one] | < 100 nM | 100 to 1000 nM | < 100 nM
CC(C)c1c(-c2cn(C)c3ncccc23)[nH]c2ccc(C3CCN(CCS(N)(=O)=O)CC3)cc12 [Example 783, 2-(4-(3-isopropyl-2-(1-methyl-1H-pyrrolo[2,3-b]pyridin-3-yl)-1H-indol-5-yl)piperidin-1-yl)ethane-1-sulfonamide] | < 100 nM | 1000 to 50000 nM | < 100 nM
CC(C)c1c(-c2ccnc3[nH]ncc23)[nH]c2ccc(C3CCN(C4CCN(C(C)C)CC4)CC3)cc12 [Example 821, 4-(3-isopropyl-5-(1′-isopropyl-[1,4′-bipiperidin]-4-yl)-1H-indol-2-yl)-1H-pyrazolo[3,4-b]pyridine] | < 100 nM | < 100 nM | < 100 nM
Cc1cc(-c2[nH]c3ccc(C4CCNCC4)cc3c2C(C)C)c2ccccc2n1 [Example 104, 4-(3-isopropyl-5-(piperidin-4-yl)-1H-indol-2-yl)-2-methylquinoline] | < 100 nM | 1000 to 50000 nM | < 100 nM
Cc1cc(-c2[nH]c3ccc(C4CCNCC4)cc3c2C(C)C)cc2c1oc(=O)n2C [Example 90, 5-(3-isopropyl-5-(piperidin-4-yl)-1H-indol-2-yl)-3,7-dimethylbenzo[d]oxazol-2(3H)-one] | 100 to 1000 nM | 1000 to 50000 nM | < 100 nM
CC(C)c1c(-c2ccc3ncnn3n2)[nH]c2ccc(C3CCNCC3)cc12 [Example 242, 6-(3-isopropyl-5-(piperidin-4-yl)-1H-indol-2-yl)-[1,2,4]triazolo[1,5-b]pyridazine] | < 100 nM | 1000 to 50000 nM | < 100 nM
